Here are results for seven compounds from PubChem BioAssay (NCI).

SMILES strings stand for the structures.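 Grown in 96-well plates, cells were treated for 48 hours with each compound at five concentrations. Insufficient inhibition: endpoint recorded as highest concentration tested. Definition used: TGI = concentration required for complete inhibition of growth.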

Among the test systems are A498 renal; A549 NSCLC; BT-549 breast; CAKI-1 renal; EKVX NSCLC; HL-60(TB) leukemia; HT29 colon; MDA-N; MOLT-4 leukemia; NCI-H226 lung; NCI-H23 lung; NCI/ADR-RES ovarian; OVCAR-4 ovarian; SF-268 CNS; SF-295 CNS; SNB-75 CNS; SR leukemia; T-47D breast; UACC-62 melanoma.
Common to all, as to assay: NCI anticancer screen, dose series, 48 h

As for `O=C1C(Cl)=CC2(C=C1Cl)CCN=c1c(O)c3c(c(O)c12)=NC=N3`, the TGI with A498 renal was over 100 µM; in the experiment with A549 NSCLC it was over 100 µM; with BT-549 breast it was 75.2 µM; with CAKI-1 renal it was over 100 µM; in the experiment on EKVX NSCLC, over 100 µM; with HL-60(TB) leukemia, 53.6 µM. Besides, the TGI in the experiment on HT29 colon was 71.8 µM; with MDA-N, 33.6 µM; in the experiment on MOLT-4 leukemia, over 100 µM; in the experiment on NCI-H226 lung it was over 100 µM; in the experiment on NCI-H23 lung, 82.5 µM; in the experiment on NCI/ADR-RES ovarian it was over 100 µM. Further, the TGI with OVCAR-4 ovarian is over 100 µM; with SF-268 CNS it was over 100 µM; with SF-295 CNS, over 100 µM; with SNB-75 CNS it was over 100 µM; in the experiment on SR leukemia, 36.5 µM; in the experiment on T-47D breast, over 100 µM. Moreover, the TGI in the experiment with UACC-62 melanoma came to 34.7 µM.

`C=C1CC[C@@H]2[C@](C)(COC(=O)CCC(=O)OC)CCC[C@@]2(C)[C@@H]1CCC1=CC(=O)OC1`: the TGI was over 100 µM in the experiment with A498 renal; over 100 µM with A549 NSCLC; over 100 µM with BT-549 breast; 81.3 µM in the experiment with CAKI-1 renal; over 100 µM with EKVX NSCLC; 51.2 µM in the experiment with HL-60(TB) leukemia. Also, the TGI is over 100 µM in the experiment on HT29 colon; over 100 µM in the experiment on MDA-N; 47.7 µM in the experiment with MOLT-4 leukemia; over 100 µM with NCI-H226 lung; over 100 µM with NCI-H23 lung; over 100 µM in the experiment with NCI/ADR-RES ovarian. In addition, the TGI is over 100 µM in the experiment with OVCAR-4 ovarian, over 100 µM with SF-295 CNS, 51.4 µM in the experiment with SR leukemia and 73 µM in the experiment with T-47D breast.

As to `N/C(CCSCCSCC/C(N)=N\O)=N\O`, the TGI in the experiment with A549 NSCLC, in the experiment with BT-549 breast, in the experiment with CAKI-1 renal, in the experiment with EKVX NSCLC, with HL-60(TB) leukemia and in the experiment with HT29 colon was over 100 µM in each case. Moreover, the TGI in the experiment on MDA-N, with MOLT-4 leukemia, with NCI-H226 lung, with NCI-H23 lung, in the experiment with NCI/ADR-RES ovarian and with OVCAR-4 ovarian was over 100 µM throughout. In addition, the TGI in the experiment with SF-268 CNS, with SNB-75 CNS, in the experiment on SR leukemia, with T-47D breast and in the experiment on UACC-62 melanoma was over 100 µM each time.

Take `O=C(/C=C/c1ccccc1)CCN1CCCCC1`: the TGI with A498 renal, in the experiment with A549 NSCLC, in the experiment on BT-549 breast, in the experiment with CAKI-1 renal, with EKVX NSCLC and with HL-60(TB) leukemia was over 100 µM in each case. The TGI with HT29 colon was 43.3 µM; in the experiment with MDA-N it was 60.1 µM; in the experiment with MOLT-4 leukemia it was 63.1 µM; with NCI-H226 lung it was over 100 µM; in the experiment on NCI-H23 lung, 89.8 µM; in the experiment on NCI/ADR-RES ovarian it was over 100 µM. Also, the TGI with OVCAR-4 ovarian, in the experiment on SF-268 CNS, in the experiment on SF-295 CNS, in the experiment on SNB-75 CNS, in the experiment on SR leukemia and in the experiment on T-47D breast was over 100 µM throughout. This compound also had a TGI with UACC-62 melanoma of over 100 µM.

As to `CC1(c2ccc(Cl)cc2)C=C(c2ccc(Cl)cc2)C(C#N)=C(C(C#N)C#N)N1` (configuration not stated), the TGI was found to be 33.7 µM in the experiment on A498 renal; 42.2 µM in the experiment with A549 NSCLC; 43.3 µM in the experiment on BT-549 breast; 32.2 µM in the experiment with CAKI-1 renal; 31.3 µM with EKVX NSCLC; 41.1 µM with HL-60(TB) leukemia. Also, the TGI came out at 32.8 µM in the experiment with HT29 colon; 31.8 µM in the experiment with MDA-N; 47 µM in the experiment with MOLT-4 leukemia; 98.2 µM in the experiment on NCI-H226 lung; 32.3 µM with NCI-H23 lung; 39.9 µM in the experiment with NCI/ADR-RES ovarian. For the same compound, the TGI in the experiment on OVCAR-4 ovarian stood at 32.6 µM; in the experiment on SF-268 CNS, 23.9 µM; in the experiment on SF-295 CNS, 33.9 µM; with SNB-75 CNS, 33.6 µM; with SR leukemia, 73.8 µM; in the experiment with T-47D breast, 46.9 µM. This compound also gave a TGI in the experiment on UACC-62 melanoma of 28.2 µM.

`N#CC1=C(S)N(C2OC(CO)C(O)C(O)C2O)C(c2ccccc2)=CC1c1ccco1` (configuration not stated): the TGI in the experiment on A498 renal, in the experiment with A549 NSCLC, in the experiment on BT-549 breast, in the experiment with CAKI-1 renal, in the experiment on HL-60(TB) leukemia and in the experiment on HT29 colon was over 100 µM throughout. In addition, the TGI in the experiment with MDA-N, in the experiment on MOLT-4 leukemia, in the experiment on NCI-H226 lung, in the experiment with NCI-H23 lung, in the experiment on NCI/ADR-RES ovarian and in the experiment with OVCAR-4 ovarian was over 100 µM in each case. The TGI in the experiment with SF-268 CNS was over 100 µM; with SF-295 CNS, over 100 µM; in the experiment with SNB-75 CNS, 45.1 µM; in the experiment on SR leukemia, over 100 µM; in the experiment with T-47D breast, 99.5 µM; in the experiment on UACC-62 melanoma, 42.1 µM.

Take `CCCCCC(=O)OC[n+]1cccc(-c2c(COC(=O)NC(C)C)c(COC(=O)NC(C)C)c3n2CCC3)c1`: the TGI with A498 renal is 37.7 µM; in the experiment with A549 NSCLC, over 100 µM; in the experiment with BT-549 breast, over 100 µM; in the experiment with CAKI-1 renal it was over 53.9 µM; in the experiment with EKVX NSCLC it was over 100 µM; in the experiment with HL-60(TB) leukemia, over 100 µM. Moreover, the TGI in the experiment with HT29 colon was over 100 µM; in the experiment with MDA-N, over 100 µM; in the experiment with MOLT-4 leukemia, over 71.1 µM; in the experiment on NCI-H226 lung it was over 100 µM; in the experiment on NCI-H23 lung it was over 100 µM; in the experiment on NCI/ADR-RES ovarian, over 100 µM. Also, the TGI in the experiment on OVCAR-4 ovarian is over 100 µM; with SF-268 CNS, over 100 µM; with SF-295 CNS it was over 100 µM; with SNB-75 CNS, over 100 µM; in the experiment with SR leukemia it was over 73.8 µM; with T-47D breast, over 100 µM. Besides, the TGI in the experiment with UACC-62 melanoma amounted to 89.2 µM.
